According to paper PMC8725837, “2-Arylquinolines as novel anticancer agents with dual EGFR/FAK kinase inhibitory activity: synthesis, biological evaluation, and molecular modelling insights” (Journal of Enzyme Inhibition and Medicinal Chemistry, 2021):

Columns and labels:
[1] = tested on: MDMBA-231 breast cancer cell line; assay: MTT antiproliferative assay, MDMBA-231; assay type: cell-based; details: 10 µM, 24 h
Experimental: (§1) At least, three independent experiments were performed.

[2] = tested on: MCF-7 breast cancer cell line; assay: MTT antiproliferative assay, MCF-7; assay type: cell-based; details: 10 µM, 24 h
Experimental: as §1

[3] = tested on: HeLa cervical cancer cell line; assay: MTT antiproliferative assay, HeLa; assay type: cell-based; details: 10 µM, 24 h
Experimental: as §1

FRK = target: T1, FRK (Homo sapiens, UniProt P42685); assay: Z`-LYTE kinase profiling, FRK; assay type: biochemical
T1 construct: purchased Invitrogen/Life Technologies
T1 sequence (P42685 whole entry): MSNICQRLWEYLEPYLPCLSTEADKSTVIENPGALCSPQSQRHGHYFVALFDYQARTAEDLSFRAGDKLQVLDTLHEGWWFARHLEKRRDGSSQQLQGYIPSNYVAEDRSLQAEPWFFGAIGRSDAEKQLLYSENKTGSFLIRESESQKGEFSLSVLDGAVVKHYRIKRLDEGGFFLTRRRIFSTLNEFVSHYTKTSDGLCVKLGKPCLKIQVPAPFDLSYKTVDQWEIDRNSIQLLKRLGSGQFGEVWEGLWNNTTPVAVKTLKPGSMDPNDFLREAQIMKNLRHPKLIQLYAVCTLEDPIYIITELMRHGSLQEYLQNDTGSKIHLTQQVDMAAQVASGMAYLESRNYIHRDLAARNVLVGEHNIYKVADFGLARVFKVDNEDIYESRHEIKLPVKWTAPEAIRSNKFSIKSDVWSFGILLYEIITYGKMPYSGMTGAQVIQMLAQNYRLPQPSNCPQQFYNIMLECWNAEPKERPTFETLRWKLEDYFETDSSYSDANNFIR

IGF-1R = target: T2, IGF-1R (Homo sapiens, UniProt P08069); assay: Z`-LYTE kinase profiling, IGF-1R; assay type: biochemical
T2 construct: purchased Invitrogen/Life Technologies
T2 sequence (P08069 31-1367): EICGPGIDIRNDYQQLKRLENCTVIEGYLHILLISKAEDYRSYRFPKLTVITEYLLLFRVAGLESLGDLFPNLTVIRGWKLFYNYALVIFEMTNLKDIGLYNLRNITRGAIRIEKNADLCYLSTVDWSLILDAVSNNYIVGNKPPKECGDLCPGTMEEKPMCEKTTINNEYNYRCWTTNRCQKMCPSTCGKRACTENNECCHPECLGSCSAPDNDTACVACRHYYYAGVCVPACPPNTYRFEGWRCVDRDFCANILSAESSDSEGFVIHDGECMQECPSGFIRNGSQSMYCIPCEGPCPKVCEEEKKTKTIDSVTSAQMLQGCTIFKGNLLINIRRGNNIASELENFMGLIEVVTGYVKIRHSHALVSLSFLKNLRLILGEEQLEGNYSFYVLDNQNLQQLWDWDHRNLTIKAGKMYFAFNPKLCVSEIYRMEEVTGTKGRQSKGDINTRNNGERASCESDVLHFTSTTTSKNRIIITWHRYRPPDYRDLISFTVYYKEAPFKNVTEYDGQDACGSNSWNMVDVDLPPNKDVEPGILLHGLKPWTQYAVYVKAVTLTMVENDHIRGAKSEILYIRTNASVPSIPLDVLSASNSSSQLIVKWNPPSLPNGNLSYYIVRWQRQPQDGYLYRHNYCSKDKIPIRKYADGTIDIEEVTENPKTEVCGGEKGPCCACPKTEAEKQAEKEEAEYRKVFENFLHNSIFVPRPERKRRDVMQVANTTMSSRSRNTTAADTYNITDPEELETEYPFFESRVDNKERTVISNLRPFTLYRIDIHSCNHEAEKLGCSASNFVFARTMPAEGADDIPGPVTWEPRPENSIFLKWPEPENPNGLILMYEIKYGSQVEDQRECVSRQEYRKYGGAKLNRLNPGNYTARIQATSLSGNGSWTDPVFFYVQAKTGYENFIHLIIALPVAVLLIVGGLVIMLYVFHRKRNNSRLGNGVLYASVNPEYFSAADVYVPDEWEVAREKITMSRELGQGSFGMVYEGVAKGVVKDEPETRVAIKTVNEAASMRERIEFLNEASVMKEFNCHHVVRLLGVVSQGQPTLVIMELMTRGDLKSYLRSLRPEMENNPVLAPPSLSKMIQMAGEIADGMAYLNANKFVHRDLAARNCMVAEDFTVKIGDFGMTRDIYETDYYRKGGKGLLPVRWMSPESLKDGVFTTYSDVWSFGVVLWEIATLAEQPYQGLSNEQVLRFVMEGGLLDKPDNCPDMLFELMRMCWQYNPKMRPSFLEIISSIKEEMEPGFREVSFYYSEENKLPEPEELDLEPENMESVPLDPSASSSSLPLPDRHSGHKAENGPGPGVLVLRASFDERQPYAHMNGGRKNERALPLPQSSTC

BTK = target: T3, BTK (Homo sapiens, UniProt Q06187); assay: Z`-LYTE kinase profiling, BTK; assay type: biochemical
T3 construct: purchased Invitrogen/Life Technologies
T3 sequence (Q06187 whole entry): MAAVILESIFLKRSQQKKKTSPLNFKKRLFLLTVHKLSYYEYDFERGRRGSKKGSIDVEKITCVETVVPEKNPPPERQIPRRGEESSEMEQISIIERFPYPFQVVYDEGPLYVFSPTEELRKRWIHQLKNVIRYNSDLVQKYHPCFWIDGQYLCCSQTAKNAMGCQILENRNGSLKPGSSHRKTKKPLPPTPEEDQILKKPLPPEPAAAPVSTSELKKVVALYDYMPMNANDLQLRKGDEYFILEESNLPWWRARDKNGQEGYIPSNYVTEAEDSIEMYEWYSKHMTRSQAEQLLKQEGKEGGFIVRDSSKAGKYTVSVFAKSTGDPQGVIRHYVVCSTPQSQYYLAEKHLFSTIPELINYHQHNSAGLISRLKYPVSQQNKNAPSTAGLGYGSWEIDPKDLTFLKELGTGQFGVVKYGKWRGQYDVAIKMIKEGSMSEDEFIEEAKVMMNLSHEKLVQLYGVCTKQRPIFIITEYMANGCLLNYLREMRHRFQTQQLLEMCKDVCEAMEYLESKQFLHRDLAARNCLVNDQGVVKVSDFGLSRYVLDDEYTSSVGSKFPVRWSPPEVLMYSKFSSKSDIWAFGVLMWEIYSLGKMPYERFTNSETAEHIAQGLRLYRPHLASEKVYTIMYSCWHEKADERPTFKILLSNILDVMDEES

c-Src = target: T4, c-Src (Homo sapiens, UniProt P12931); assay: Z`-LYTE kinase profiling, c-Src; assay type: biochemical
T4 construct: purchased Invitrogen/Life Technologies

VEGFR-1 = target: T5, VEGFR-1 (Homo sapiens, UniProt P17948); assay: Z`-LYTE kinase profiling, VEGFR-1; assay type: biochemical
T5 construct: purchased Invitrogen/Life Technologies

VEGFR-2 = target: T6, VEGFR-2 (Homo sapiens, UniProt P35968); assay: Z`-LYTE kinase profiling, VEGFR-2; assay type: biochemical
T6 construct: purchased Invitrogen/Life Technologies

HER-2 = target: T7, HER-2 (Homo sapiens, UniProt P04626); assay: Z`-LYTE kinase profiling, HER-2; assay type: biochemical
T7 construct: purchased Invitrogen/Life Technologies
T7 sequence (P04626 23-1255): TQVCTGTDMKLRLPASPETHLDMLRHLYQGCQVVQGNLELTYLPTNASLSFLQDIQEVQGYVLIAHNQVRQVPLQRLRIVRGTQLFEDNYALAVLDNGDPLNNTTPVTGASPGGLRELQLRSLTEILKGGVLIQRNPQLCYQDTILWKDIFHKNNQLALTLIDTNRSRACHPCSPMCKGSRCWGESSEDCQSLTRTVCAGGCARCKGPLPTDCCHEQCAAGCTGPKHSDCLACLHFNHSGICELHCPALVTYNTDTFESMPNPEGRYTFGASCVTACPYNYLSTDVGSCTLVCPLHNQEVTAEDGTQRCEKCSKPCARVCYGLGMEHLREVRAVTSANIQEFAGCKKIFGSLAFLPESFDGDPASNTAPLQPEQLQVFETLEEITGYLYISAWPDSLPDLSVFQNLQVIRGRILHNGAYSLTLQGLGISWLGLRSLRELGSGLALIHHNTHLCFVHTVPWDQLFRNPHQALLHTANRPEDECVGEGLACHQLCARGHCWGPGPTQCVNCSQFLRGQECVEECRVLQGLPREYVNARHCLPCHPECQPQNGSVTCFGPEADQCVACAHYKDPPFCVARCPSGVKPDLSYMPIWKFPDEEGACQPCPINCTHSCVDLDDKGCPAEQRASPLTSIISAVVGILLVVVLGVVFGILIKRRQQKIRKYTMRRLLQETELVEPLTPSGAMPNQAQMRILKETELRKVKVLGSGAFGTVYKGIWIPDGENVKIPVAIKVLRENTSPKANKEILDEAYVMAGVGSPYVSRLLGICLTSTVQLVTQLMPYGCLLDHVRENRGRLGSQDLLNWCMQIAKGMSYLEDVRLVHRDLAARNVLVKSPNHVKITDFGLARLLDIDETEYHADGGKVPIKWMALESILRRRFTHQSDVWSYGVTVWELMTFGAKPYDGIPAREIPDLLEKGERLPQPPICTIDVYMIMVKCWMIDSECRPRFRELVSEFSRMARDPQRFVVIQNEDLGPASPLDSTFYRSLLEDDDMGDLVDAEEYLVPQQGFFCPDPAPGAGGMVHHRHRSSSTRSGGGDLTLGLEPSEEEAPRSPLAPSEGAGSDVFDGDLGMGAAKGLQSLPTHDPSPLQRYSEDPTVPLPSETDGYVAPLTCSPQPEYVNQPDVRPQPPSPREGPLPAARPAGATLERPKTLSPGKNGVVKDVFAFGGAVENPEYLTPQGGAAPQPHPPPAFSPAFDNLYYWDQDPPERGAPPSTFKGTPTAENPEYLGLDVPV

[4] = tested on: DLD-1 colorectal cancer cell line; assay: MTT antiproliferative assay, DLD-1; details: for GI% DLD1: 10 µM, 24 h, MTT; for IC50: Homo sapiens, DLD-1, 24 h, read-out: IC50 DLD1 (half maximal growth inhibitory concentration)
Experimental: (§2) After the incubation of the tested compounds for 24 h, the percent growth inhibition (GI%) was calculated.
(§3) Cells were seeded at 1 × 10^4 cells/well and cultured overnight in a 96-well plate. […] Then, 150 µl DMSO was used to solubilise MTT formazan crystals. Finally, the plates were shaken, and the optical density was determined at 570 nm using ELISA plate reader. At least, three independent experiments were performed. Percentage of growth inhibition was determined as (1-[OD of treated cells/OD of control cells]). […] The IC50 values were calculated using Prism v0.8 software (GraphPad Software Inc., La Jolla, CA).

[5] = tested on: HCT-116 colorectal cancer cell line; assay: MTT antiproliferative assay, HCT-116; details: for GI% HCT-116: 10 µM, 24 h, MTT; for IC50: Homo sapiens, HCT-116, 24 h, read-out: IC50 HCT-116 (half maximal growth inhibitory concentration)
Experimental: as §2, §3

FAK = FAK (Homo sapiens, UniProt Q05397); assay: Z`-LYTE kinase inhibitory assay, FAK
EGFR = EGFR (Homo sapiens, UniProt P00533); assay: Z`-LYTE kinase inhibitory assay, EGFR
EGFR, sequence (P00533 25-1210): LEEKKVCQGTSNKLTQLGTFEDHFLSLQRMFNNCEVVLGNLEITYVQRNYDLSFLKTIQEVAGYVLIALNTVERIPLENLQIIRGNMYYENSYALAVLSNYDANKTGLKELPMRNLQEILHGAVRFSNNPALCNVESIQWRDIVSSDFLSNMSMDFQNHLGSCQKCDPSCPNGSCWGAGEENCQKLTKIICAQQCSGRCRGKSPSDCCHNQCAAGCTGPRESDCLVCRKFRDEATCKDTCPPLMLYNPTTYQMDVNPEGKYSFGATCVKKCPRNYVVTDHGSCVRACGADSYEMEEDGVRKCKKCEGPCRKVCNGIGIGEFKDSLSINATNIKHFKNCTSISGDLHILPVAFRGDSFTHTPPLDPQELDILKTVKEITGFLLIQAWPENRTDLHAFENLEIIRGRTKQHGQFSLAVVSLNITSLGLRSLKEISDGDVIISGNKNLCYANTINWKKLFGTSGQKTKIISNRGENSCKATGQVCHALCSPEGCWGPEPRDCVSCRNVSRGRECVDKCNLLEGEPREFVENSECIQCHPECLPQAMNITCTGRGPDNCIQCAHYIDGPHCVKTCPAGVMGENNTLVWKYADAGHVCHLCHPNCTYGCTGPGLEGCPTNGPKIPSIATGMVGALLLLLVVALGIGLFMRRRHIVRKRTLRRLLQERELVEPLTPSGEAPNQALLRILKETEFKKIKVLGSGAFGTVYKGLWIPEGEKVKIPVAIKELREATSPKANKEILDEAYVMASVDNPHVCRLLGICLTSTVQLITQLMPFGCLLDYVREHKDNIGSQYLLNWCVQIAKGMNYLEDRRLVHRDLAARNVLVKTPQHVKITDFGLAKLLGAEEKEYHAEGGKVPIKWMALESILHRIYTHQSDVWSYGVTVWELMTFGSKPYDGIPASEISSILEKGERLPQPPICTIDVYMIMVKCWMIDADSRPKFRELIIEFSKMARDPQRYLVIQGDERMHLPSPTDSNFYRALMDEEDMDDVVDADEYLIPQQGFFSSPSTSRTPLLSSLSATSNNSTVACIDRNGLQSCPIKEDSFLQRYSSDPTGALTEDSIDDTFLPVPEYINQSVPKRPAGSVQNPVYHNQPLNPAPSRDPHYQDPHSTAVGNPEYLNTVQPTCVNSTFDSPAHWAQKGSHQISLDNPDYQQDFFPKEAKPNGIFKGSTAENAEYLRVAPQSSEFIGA

recombinant human TOP1 = target: T8, recombinant human TOP1 (Homo sapiens, UniProt P11387); assay: Topoisomerase I-mediated DNA cleavage assay; details: tested at 0.1, 1, 10, 100 µM
T8 sequence (P11387 1-765): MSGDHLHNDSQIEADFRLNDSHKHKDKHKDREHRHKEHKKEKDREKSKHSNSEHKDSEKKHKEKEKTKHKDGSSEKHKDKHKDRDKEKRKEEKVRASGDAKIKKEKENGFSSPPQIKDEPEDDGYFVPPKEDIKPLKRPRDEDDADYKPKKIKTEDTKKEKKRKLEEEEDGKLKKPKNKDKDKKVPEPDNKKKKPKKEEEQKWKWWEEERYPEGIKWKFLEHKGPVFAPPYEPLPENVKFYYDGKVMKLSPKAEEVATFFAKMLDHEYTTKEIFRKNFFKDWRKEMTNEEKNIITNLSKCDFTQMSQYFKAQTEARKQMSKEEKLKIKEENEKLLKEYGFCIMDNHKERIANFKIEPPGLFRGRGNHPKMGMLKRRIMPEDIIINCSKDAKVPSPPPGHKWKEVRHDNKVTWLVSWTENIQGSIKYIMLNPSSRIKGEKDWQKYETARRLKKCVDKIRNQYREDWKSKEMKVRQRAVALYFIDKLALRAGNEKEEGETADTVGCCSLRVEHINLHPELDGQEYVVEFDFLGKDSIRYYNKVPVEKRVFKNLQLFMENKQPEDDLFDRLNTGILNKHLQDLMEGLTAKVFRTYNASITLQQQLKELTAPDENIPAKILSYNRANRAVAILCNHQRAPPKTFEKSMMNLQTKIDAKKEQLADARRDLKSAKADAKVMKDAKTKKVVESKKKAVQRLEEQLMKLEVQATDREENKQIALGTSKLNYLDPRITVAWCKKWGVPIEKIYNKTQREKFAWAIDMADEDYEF
Experimental: Radiolabeled DNA was incubated with recombinant human TOP1 in 20 µL reaction buffer (10 mmol/L Tris-HCl, pH 7.5, 50 mmol/L KCl, 5 mmol/L MgCl2, 0.1 mmol/L EDTA, and 15 µg/mL BSA) at 30 °C for 20 min in the presence of the indicated drug concentrations. Reactions were terminated by adding SDS (0.5% final concentration) followed by the addition of two volumes of loading dye (80% formamide, 10 mmol/L sodium hydroxide, 1 mmol/L sodium EDTA, 0.1% xylene cyanol, and 0.1% bromophenol blue). Aliquots of reaction mixtures were subjected to 20% denaturing PAGE. Gels were dried and visualised by using PhosphorImager and Image Quant software (Molecular Dynamics).

SMILES | IC50 (FRK) | IC50 (IGF-1R) | IC50 (BTK) | IC50 (c-Src) | IC50 (VEGFR-1) | IC50 (VEGFR-2) | IC50 (HER-2) | melting point | IC50 [4] | IC50 [5] | IC50 (FAK) | IC50 (EGFR) | TOP1 inhibitory activity (semiquantitative score relative to 1 µM CPT) (recombinant human TOP1) | fold decreased activity than Gefitinib, EGFR (EGFR; from IC50 values) | GI% MDMBA-231 [1] | GI% MCF-7 [2] | GI% Hela [3] | GI% DLD1 [4] | GI% HCT-116 [5]
COc1cc2nc(-c3ccc(C)cc3)cc(OCCCNCC3CCCO3)c2cc1OC (stereo not shown) [6n, 3-((6,7-dimethoxy-2-(p-tolyl)quinolin-4-yl)oxy)-N-((tetrahydrofuran-2-yl)methyl)propa-n-1-amine] | 2.52 µM | 2.81 µM | 0.819 µM | 0.0827 µM | 0.556 µM | 1.19 µM | 1.39 µM | 60 to 62 °C | 6.11 ± 1.8 µM | 8.69 ± 0.94 µM | 0.0444 ± 0.00294 µM | 0.0418 ± 0.00234 µM | 0 | – | 14.39% | 58.15% | 71.12% | 81.34% | 64.26%
CN1CCN(CCCOc2cc(-c3ccc(C(F)(F)F)cc3)nc3ccccc23)CC1 [10a, 4-(3-(4-methylpiperazin-1-yl)propoxy)-2-(4-(trifluoromethyl)phenyl)quinoline] | 8.91 µM | 0.198 µM | 4.76 µM | 1.03 µM | 4.39 µM | 8.55 µM | 1.02 µM | 110 to 112 °C | > 100 µM | > 100 µM | 0.2987 ± 0.00194 µM | 0.244 ± 0.00841 µM | 0 | – | 37.15% | 14.26% | 25.64% | 22.51% | 18.64%
COc1cc2nc(-c3ccc(-c4ccco4)cc3)cc(OCCCN3CCN(C)CC3)c2cc1OC [8a, 2-(4-(furan-2-yl)phenyl)-6,7-dimethoxy-4-(3-(4-methylpiperazin-1-yl)propoxy)quinoline] | 0.846 µM | 1.06 µM | 5.6 µM | 4.54 µM | 0.648 µM | 6.37 µM | 0.989 µM | 135 to 137 °C | > 100 µM | > 100 µM | 0.198 ± 0.0123 µM | 0.349 ± 0.014 µM | 0 | – | 4.40% | 7.22% | 11.78% | 5.15% | 1.02%
COc1cc2nc(-c3ccc(C(F)(F)F)cc3)cc(OCCCn3ccnc3)c2cc1OC [6j, 4-(3-(1H-imidazol-1-yl)propoxy)-6,7-dimethoxy-2–(4-(trifluoromethyl)phenyl)quinoline] | 0.139 µM | 0.219 µM | 0.185 µM | 0.186 µM | 0.769 µM | 0.392 µM | 0.206 µM | 217 to 219 °C | > 100 µM | > 100 µM | 0.186 ± 0.00622 µM | 0.258 ± 0.0119 µM | 0 | – | 8.42% | 14.67% | 5.67% | 6.31% | 2.46%
COc1cc2nc(-c3ccc(C)cc3)cc(OCCCNC3CCN(C)CC3)c2cc1OC [6m, N-(3-((6,7-dimethoxy-2-(p-tolyl)quinolin-4-yl)oxy)propyl)-1-methylpiperidin-4-amine] | 2.76 µM | 2.81 µM | 2.46 µM | 0.98 µM | 0.865 µM | 2.83 µM | 0.332 µM | 66 to 68 °C | 54.2 ± 2.11 µM | 43.1 ± 1.05 µM | 0.172 ± 0.0137 µM | 0.154 ± 0.0128 µM | −/+ (−/+: 0–25% 1 µM CPT) | – | 8.16% | 22.09% | 30.19% | 22.16% | 24.31%
Clc1ccc(-c2cc(OCCCN3CCOCC3)c3cc4c(cc3n2)OCO4)cc1 [12b, 6-(4-chlorophenyl)-8-(3-morpholinopropoxy)-[1,3]dioxolo [4,5-g]quinoline] | 1.13 µM | 7.16 µM | 0.213 µM | 0.0423 µM | 5.99 µM | 0.027 µM | 0.0273 µM | 153 to 155 °C | 8.36 ± 1.08 µM | 14.4 ± 3.69 µM | 0.0709 ± 0.00316 µM | 0.0954 ± 0.00205 µM | −/+ (−/+: 0–25% 1 µM CPT) | 2 fold | 14.28% | 64.38% | 25.39% | 72.95% | 31.28%

More lines, main results first:

IC50 (FRK) | IC50 (IGF-1R) | IC50 (BTK) | IC50 (c-Src) | IC50 (VEGFR-1) | IC50 (VEGFR-2) | IC50 (HER-2) | melting point | IC50 [4] | IC50 [5] | IC50 (FAK) | IC50 (EGFR) | TOP1 inhibitory activity (semiquantitative score relative to 1 µM CPT) (recombinant human TOP1) | fold decreased activity than Gefitinib, EGFR (EGFR; from IC50 values) | SMILES | GI% MDMBA-231 [1] | GI% MCF-7 [2] | GI% Hela [3] | GI% DLD1 [4] | GI% HCT-116 [5]
6.67 µM | 6.69 µM | 5.62 µM | 1.73 µM | 2.56 µM | 5.1 µM | 1.61 µM | 144 to 146 °C | > 100 µM | 88 ± 5.24 µM | 0.224 ± 0.0105 µM | 0.485 ± 0.0114 µM | + (+: 25–50% 1 µM CPT) | – | Fc1ccc(-c2cc(OCCCn3ccnc3)c3cc(Br)ccc3n2)cc1 [16c, 4-(3-(1H-imidazol-1-yl)propoxy)-6-bromo-2-(4-fluorophenyl)quinoline] | 20.11% | 4.36% | 8.67% | 12.25% | 18.14%
0.133 µM | 0.0412 µM | 1.78 µM | 0.251 µM | 0.712 µM | 0.294 µM | 1.77 µM | 168 to 170 °C | 65.3 ± 5.36 µM | 29.5 ± 4.15 µM | 0.125 ± 0.00315 µM | 0.147 ± 0.00837 µM | 0 | – | COc1ccc(-c2ccc3nc(-c4ccc(F)cc4)cc(OCCCN4CCOCC4)c3c2)cc1 [20d, 4-(3-((2-(4-fluorophenyl)-6-(4-methoxyphenyl)quinolin-4-yl)oxy)propyl)morpholine] | 27.05% | 15.34% | 11.97% | 24.65% | 36.91%
2.62 µM | 2.86 µM | 8.67 µM | 2.9 µM | 1.35 µM | 1.25 µM | 1.01 µM | 210 to 212 °C | 13.1 ± 3.69 µM | 24.1 ± 2.46 µM | 0.0773 ± 0.00437 µM | 0.122 ± 0.0094 µM | 0 | – | COc1ccc(-c2ccc3nc(-c4ccc(Cl)cc4)cc(OCCCn4ccnc4)c3c2)cc1 [20a, 4-(3-(1H-imidazol-1-yl)propoxy)-2-(4-chlorophenyl)-6-(4-methoxyphenyl)quinoline] | 29.08% | 15.23% | 22.06% | 44.98% | 36.71%
8.71 µM | 8.91 µM | 8.98 µM | 4.21 µM | 4.74 µM | 2.3 µM | 1.65 µM | 173 to 175 °C | 9.65 ± 2.15 µM | 7.34 ± 1.82 µM | 0.0633 ± 0.00325 µM | 0.245 ± 0.0123 µM | 0 | – | COc1ccc(-c2ccc3nc(-c4ccc(Cl)cc4)cc(OCCCN4CCOCC4)c3c2)cc1 [20b, 4-(3-((2-(4-chlorophenyl)-6-(4-methoxyphenyl)quinolin-4-yl)oxy)propyl)morpholine] | 48.31% | 29.37% | 34.02% | 53.15% | 71.05%
